Experimental data reported in patent publication US4204065A, “Soft quaternary surface active agents and method of using same” (Interx Research Corporation, priority 1978, dated 1980).
“Also recorded” adds a separate entry of the source. Like-named read-outs stand apart in the source and are kept apart here.

What was measured:
rat = conditions: cited from earlier work
mouse [1] = conditions: cited from earlier work
mouse [2] = conditions: cited from earlier work; remark: listed apart in the source
S. aureus = test: microbe, parasite or virus in culture; assay type: cell-based; conditions: Staphylococcus aureus, pH 7, read-out: Minimal inhibitory concentration (MIC), S. aureus
B. subtilis = test: Minimal inhibitory concentration (MIC), B. subtilis; assay type: cell-based; conditions: Bacillus subtilis; 0.1 M NaH2PO4, pH 7.0
P. aeruginosa = test: Minimal inhibitory concentration (MIC), P. aeruginosa; assay type: cell-based; conditions: Pseudomonas aeruginosa; 0.1 M NaH2PO4, pH 7.0
S. typhimirum = test: Minimal inhibitory concentration (MIC), S. typhimirum; assay type: cell-based; conditions: 0.1 M NaH2PO4, pH 7.0
S. pyogenes = test: Minimal inhibitory concentration (MIC), S. pyogenes; assay type: cell-based; conditions: Streptococcus pyogenes; 0.1 M NaH2PO4, pH 7.0
[3] = Saturated solubility (footnote of MIC table); assay type: physicochemical; conditions: 0.1 M NaH2PO4, pH 7.0; footnote b; read-out: Approximately the saturated solubility
Source text: ^b Approximately the saturated solubility.

in vivo [4] = conditions: mouse, iv
White Male Mice MCR-ICR = conditions: oral; for Mortality 24 hrs. / Mortality 7 days: deaths of 10 animals per dose
in vivo [5] = conditions: mouse, po
[6] = system: MCR-ICR White Swiss Male Mice; conditions: mouse; for Mortality 24 hrs. / Mortality 7 days: in vivo

CCCCCCCCCCCCCCCC[n+]1ccccc1 [Compound 1, cetylpyridinium chloride]
LD50 IV (rat): 30 mg/kg | LD50 IP (mouse [1]): 10 mg/kg | LD50 oral (mouse [2]): 108 mg/kg

CCCCCCCC(=O)OC[n+]1ccccc1 [Compound 2, n-Octanoyloxymethylpyridinium chloride]
MIC (S. aureus): 529 µg/mL | MIC (B. subtilis): 529 µg/mL | MIC (P. aeruginosa): 1060 µg/mL | MIC (S. typhimirum): 1060 µg/mL | MIC (S. pyogenes): 529 µg/mL

CCCCCCCCCCCC(=O)OC[n+]1ccccc1 [Compound 3, n-Dodecanoyloxymethylpyridinium chloride]
MIC (S. aureus): 8.9 µg/mL | MIC (B. subtilis): 143 µg/mL | MIC (P. aeruginosa): < 2.2 µg/mL | MIC (S. typhimirum): 35.8 µg/mL | MIC (S. pyogenes): 71.5 µg/mL

CCCCCCCCCCCCCC(=O)OC[n+]1ccccc1 [Compound 4, n-Tetradecanoyloxymethylpyridinium chloride]
MIC (S. aureus): 8.1 µg/mL | MIC (B. subtilis): 8.3 µg/mL | MIC (P. aeruginosa): > 1060 µg/mL | MIC (S. typhimirum): 133 µg/mL | MIC (S. pyogenes): 4.2 µg/mL

CCCCCCCCCCCCCCCC(=O)OC[n+]1ccccc1 [Compound 5, n-Hexadecanoyloxymethylpyridinium chloride]
MIC (S. aureus): 16.7 µg/mL | MIC (B. subtilis): 1070 µg/mL | MIC (P. aeruginosa): 1070 µg/mL | MIC (S. typhimirum): 1070 µg/mL | MIC (S. pyogenes): 268 µg/mL

CCCCCCCCCCCC(=O)OC[n+]1ccn(C)c1 [Compound 6]
MIC (S. aureus): 4.1 µg/mL | MIC (B. subtilis): 16.3 µg/mL | MIC (P. aeruginosa): 261 µg/mL | MIC (S. typhimirum): 65.3 µg/mL | MIC (S. pyogenes): 2 µg/mL

CCCCCCCCCCCCCC(=O)OC[n+]1ccn(C)c1 [Compound 7]
MIC (S. aureus): < 2.2 µg/mL | MIC (B. subtilis): 4.4 µg/mL | MIC (P. aeruginosa): > 1120 µg/mL | MIC (S. typhimirum): 69.7 µg/mL | MIC (S. pyogenes): > 2.2 µg/mL

CCCCCCCCCCCCCCCC(=O)OC[n+]1ccn(C)c1 [Compound 8]
solubility [3]: ~42.4 µg/mL | MIC (S. aureus): 1.3 µg/mL | MIC (B. subtilis): > 42.4 µg/mL | MIC (P. aeruginosa): > 42.4 µg/mL | MIC (S. typhimirum): > 42.4 µg/mL | MIC (S. pyogenes): > 42.4 µg/mL

CCCCCCCCCCCC(=O)OC[n+]1ccn(C)c1 [IRx-1229]
LD50 at 24 h (in vivo [4]): 100 to 133 mg/kg | Deaths per day, Day 1 (White Male Mice MCR-ICR; 1.68 g/kg): 0 | Deaths per day, Day 2 (White Male Mice MCR-ICR; 1.68 g/kg): 1 | Mortality 24 hrs. (White Male Mice MCR-ICR; 1.68 g/kg): 0 | Mortality 7 days (White Male Mice MCR-ICR; 1.68 g/kg): 1 | Deaths per day, Day 1 (White Male Mice MCR-ICR; 3.35 g/kg): 2 | Deaths per day, Day 3 (White Male Mice MCR-ICR; 3.35 g/kg): 1 | Mortality 24 hrs. (White Male Mice MCR-ICR; 3.35 g/kg): 2 | Mortality 7 days (White Male Mice MCR-ICR; 3.35 g/kg): 3 | Deaths per day, Day 1 (White Male Mice MCR-ICR; 5.00 g/kg): 7 | Mortality 24 hrs. (White Male Mice MCR-ICR; 5.00 g/kg): 7 | Mortality 7 days (White Male Mice MCR-ICR; 5.00 g/kg): 7 | LD50 at 24 h (in vivo [5]): 4300 mg/kg | LD50 at 168 h (in vivo [5]): 4110 mg/kg | Symptoms: time of death ([6]; IV): Death either occurred immediately after injection or several day later, never between 5 minutes and 24 hours after injection | Symptoms: cause and signs of immediate death ([6]; IV, death immediately following injection): circulatory collapse because of too large an injection or precipitation of the compound in the bloodstream; also recorded: death was preceded by convulsions | Mortality 24 hrs. ([6]; 133 mg/kg): 1/3 | Mortality 7 days ([6]; 133 mg/kg): 1/3 | Mortality 24 hrs. ([6]; iv, 35.09 mg/kg): 0/5 | Mortality 7 days ([6]; iv, 35.09 mg/kg): 0/5 | Mortality 24 hrs. ([6]; iv, 42.5 mg/kg): 0/5 | Mortality 7 days ([6]; iv, 42.5 mg/kg): 0/5 | Mortality 24 hrs. ([6]; iv, 81.25 mg/kg): 1/2 | Mortality 7 days ([6]; iv, 81.25 mg/kg): 1/2 | Mortality 24 hrs. ([6]; iv, 87.73 mg/kg): 2/4 | Mortality 7 days ([6]; iv, 87.73 mg/kg): 2/4 | Mortality 24 hrs. ([6]; iv, 102.47 mg/kg): 0/8 | Mortality 7 days ([6]; iv, 102.47 mg/kg): 1/8 | Mortality 24 hrs. ([6]; iv, 199.5 mg/kg): 1/1 | Mortality 7 days ([6]; iv, 199.5 mg/kg): 1/1
